Two molecules from paper PMC4156869 (Journal of the American Chemical Society, 2014) can be followed below.

SMILES strings stand for the structures.

The assay concerns the target T1, GalK2 (N-acetyl-galactosamine kinase) (Homo sapiens, UniProt Q01415).
T1 sequence (Q01415 1-458): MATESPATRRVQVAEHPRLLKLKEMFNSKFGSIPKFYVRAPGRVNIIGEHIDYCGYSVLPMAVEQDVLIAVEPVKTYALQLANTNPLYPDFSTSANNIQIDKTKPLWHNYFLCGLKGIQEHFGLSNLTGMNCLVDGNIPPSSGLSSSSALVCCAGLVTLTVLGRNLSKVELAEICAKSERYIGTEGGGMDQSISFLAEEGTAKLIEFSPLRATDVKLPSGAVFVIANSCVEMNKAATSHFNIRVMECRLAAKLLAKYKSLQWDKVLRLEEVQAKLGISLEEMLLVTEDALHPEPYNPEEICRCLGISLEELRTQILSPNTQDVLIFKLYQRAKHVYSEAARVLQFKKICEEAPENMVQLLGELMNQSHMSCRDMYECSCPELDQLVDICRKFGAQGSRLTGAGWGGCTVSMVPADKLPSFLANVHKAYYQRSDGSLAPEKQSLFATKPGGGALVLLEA
The assay can be described thus: […]gamma-ATP phosphorylation, Dowex column, scintillation counting. Format: biochemical. Conditions: 40 mM sugar, 5 mM ATP, 10 mM MgCl2, 50 mM Tris HCl pH 8.0, 37 °C.

With `CC(=O)N[C@H]1C(O)O[C@H](CO)[C@H](O)[C@@H]1O` (some centres unmarked) [GalNAc], the “[32P]gamma-ATP phosphorylation, Dowex column, scintillation counting” value was “GalK2 readily phosphorylated both GalNAc and GlcNAc”. The entry for `CC(=O)N[C@H]1C(O)O[C@H](CO)[C@@H](O)[C@@H]1O` (some centres unmarked) [GlcNAc] is “GalK2 readily phosphorylated both GalNAc and GlcNAc”.
